# Entries after “also recorded” stand apart in the source; their conditions may differ. Where two headings read alike, the source gives them in different places.
# Assays:
# [1] = test system: mouse spleen cells, antibody response to sheep red blood cells; conditions: morphine positive control; ref Rahim et al, 2001; cited from earlier work
# human monocytes = conditions: 10^−6 M naloxone; ref Trombella et al, 2005; cited from earlier work
# mouse spleen cells [2] = conditions: 2 hrs pretreatment, same PFC assay; ref Eisenstein et al, 1995; cited from earlier work
# ORL-1 [3] = conditions: in vitro; ref Knoflach et al, 1996; Reinscheid et al, 1995; cited from earlier work
# ORL-1 [4] = conditions: in vivo; ref Chen et al, 2001; cited from earlier work
# C-4 A-APA = experiment: Dot-blot cross-reactivity, C-4 A-APA; type: binding, rabbit; conditions: membrane-spotted peptides
# C-1 A-APA = experiment: Dot-blot cross-reactivity, C-1 A-APA; type: binding, rabbit; conditions: membrane-spotted peptides
# [5] = test system: C-4 A-APA (affinity-purified rabbit antiserum to N/OFQ); experiment: Solid-phase RIA, displacement of; type: binding; conditions: for cross-reactivity in RIA: competitive peptide 1 × 10^−6 M to 1.5 × 10^−12 M
# [6] = test system: C-1 A-APA (affinity-purified rabbit antiserum to N/OFQ); experiment: Solid-phase RIA, displacement of; type: binding; conditions: for cross-reactivity in RIA: competitive peptide 1 × 10^−6 M to 1.5 × 10^−12 M
# [7] = test system: mouse spleen cells, antibody response to sheep red blood cells; conditions: s.c. Alzet pump, 48 hr
# [8] = test system: human monocytes and monocyte-like cell lines (CCL2/MCP-1, CCL5/RANTES); conditions: CCL2/MCP-1 and CCL5/RANTES; ref Kaminsky and Rogers, 2008; cited from earlier work
# astrocyte cultures = conditions: lipopolysaccharide in vitro; ref Fu et al, 2007; cited from earlier work
# human T cells = conditions: cited from earlier work
# kappa opioid receptor = conditions: ref Mollereau et al, 1994; Pan et al, 1995; cited from earlier work
# [9] = test system: mouse spleen (TNF-α and IFN-γ mRNA); conditions: in vivo; cited from earlier work
# [10] = test system: Con A activated rat splenocytes; conditions: ref Miller and Fulford, 2007, cited from earlier work
# delta opioid receptor = conditions: ref Mollereau et al, 1994; Pan et al, 1995; cited from earlier work
# astrocytes = conditions: peripheral administration of an inflammatory stimulus; ref Fu et al, 2007; cited from earlier work
# mu opioid receptor = conditions: ref Mollereau et al, 1994; Pan et al, 1995; cited from earlier work
# ORL-1 receptor = conditions: cited from earlier work
# mouse spleen cells [11] = experiment: Primary in vitro plaque-forming cell; type: cell-based, mouse (C3HeB/FeJ); conditions: primary PFC assay
molecule,measurement,setting,value
CN1CC[C@]23c4c5ccc(O)c4O[C@H]2[C@@H](O)C=C[C@H]3[C@H]1C5 [morphine],dose producing maximal immunosuppression,[1],0.5 mg/kg/day
C=CCN1CC[C@]23c4c5ccc(O)c4O[C@H]2C(=O)CC[C@@]3(O)[C@H]1C5 [naloxone],effect of naloxone on chemotaxis induced by the peptide,human monocytes,did not block human monocyte chemotaxis
same,block of immunosuppressive effect of morphine and U50488,mouse spleen cells [2],"completely blocked the immunosuppressive effect of morphine and of the kappa agonist, U50488"
same,naloxone sensitivity of ORL-1 activity,ORL-1 [3],naloxone insensitive
same,naloxone sensitivity of ORL-1 activity,ORL-1 [4],naloxone insensitive
BAM-18,dot-blot reactivity,C-4 A-APA,not to classical opioid
same,dot-blot reactivity,C-1 A-APA,not to classical opioid
same,cross-reactivity in RIA,[5],did not show significant cross-reactivity; also recorded: No significant cross-reactivities were detected
same,cross-reactivity in RIA,[6],no significant cross-reactivity; also recorded: No significant cross-reactivities were detected
Dynorphin A1-17,cross-reactivity in RIA,[5],did not show significant cross-reactivity
same,cross-reactivity in RIA,[5]; listed as Dynorphin A1-17,No significant cross-reactivities were detected
same,cross-reactivity in RIA,[6],no significant cross-reactivity
same,cross-reactivity in RIA,[6]; listed as Dynorphin A1-17,No significant cross-reactivities were detected
"Tyr-Gly-Gly-Gly-Met [Met-enkephalin, Met-Enkephalin]",dot-blot reactivity,C-4 A-APA,not to classical opioid
same,dot-blot reactivity,C-1 A-APA,not to classical opioid
"Tyr-Gly-Gly-Phe-Leu [Leu-enkephalin, Leu-Enkephalin]",dot-blot reactivity,C-4 A-APA,not to classical opioid
same,dot-blot reactivity,C-1 A-APA,not to classical opioid
same,cross-reactivity in RIA,[5],did not show significant cross-reactivity
same,cross-reactivity in RIA,[5]; listed as Leu-Enkephalin,No significant cross-reactivities were detected
same,cross-reactivity in RIA,[6],no significant cross-reactivity
same,cross-reactivity in RIA,[6]; listed as Leu-Enkephalin,No significant cross-reactivities were detected
nociceptin/orphanin FQ [N/OFQ],dose of maximal immunosuppression,[7],0.05 mg/kg/day
same,chemokine production,[8],suppress the production of chemokine proteins
same,dot-blot reactivity,C-4 A-APA,showed reactivity to the three nociceptin peptides
same,dot-blot reactivity,C-1 A-APA,showed reactivity to the three nociceptin peptides
same,"mRNA for TNF-α, IL-1β, and IL-6",astrocyte cultures,decrease expression of mRNA
same,CD28 expression,human T cells,up-regulated expression of the co-stimulatory molecule CD28
same,CTLA-4 expression,human T cells,upregulate CTLA-4
same,PGE2 induction,human T cells,induced PGE2
same,proliferation,human T cells,increased proliferation
same,binding,kappa opioid receptor,does not bind
same,IC20,"[5]; read-out: smallest measurable displacement, IC20, solid-phase RIA, C-4 A-APA",0.062 nM
same,IC80,"[5]; solid-phase RIA, C-4 A-APA",0.71 nM
same,mRNA for TNF-α and IFN-γ in spleens,[9],increased levels of mRNA
same,IC80,"[6]; solid-phase RIA, C-1 A-APA",2.9 nM
same,inhibition of proliferation,[10]; Con A activated rat splenocytes,inhibit the proliferation
same,inhibition of IL-2 production,[10]; in vitro,"inhibit the proliferation of Con A activated rat splenocytes, as well as the production of IL-2"
same,binding,delta opioid receptor,does not bind
same,"mRNA for TNF-α, IL-1β, and IL-6",astrocytes,decrease expression of mRNA
same,binding,mu opioid receptor,does not bind
same,forskolin-induced cAMP accumulation,ORL-1 receptor,inhibition of forskolin-induced cAMP accumulation
same,suppression of antibody formation,mouse spleen cells [11],suppressed antibody formation to sheep red blood cells; also recorded: suppresses both the secondary and primary plaque-forming cell assay
